# Results published in PMC6771811, “The structure of a GH149 β‐(1 → 3) glucan phosphorylase reveals a new surface oligosaccharide binding site and additional domains that are absent in the disaccharide‐specific GH94 glucose‐β‐(1 → 3)‐glucose (laminaribiose) phosphorylase” (Proteins, 2019).
# Target: T1, Pro_7066 (uncultured bacterium, UniProt Z9M604V374)
# T1 construct: His6-tagged, pET28a, E. coli BL21 (DE3); tag removal not mentioned; 130-kDa chain, homodimer; domains span residues 1-1156; GH149
# T1 sequence (Z9M604V374 20-1175): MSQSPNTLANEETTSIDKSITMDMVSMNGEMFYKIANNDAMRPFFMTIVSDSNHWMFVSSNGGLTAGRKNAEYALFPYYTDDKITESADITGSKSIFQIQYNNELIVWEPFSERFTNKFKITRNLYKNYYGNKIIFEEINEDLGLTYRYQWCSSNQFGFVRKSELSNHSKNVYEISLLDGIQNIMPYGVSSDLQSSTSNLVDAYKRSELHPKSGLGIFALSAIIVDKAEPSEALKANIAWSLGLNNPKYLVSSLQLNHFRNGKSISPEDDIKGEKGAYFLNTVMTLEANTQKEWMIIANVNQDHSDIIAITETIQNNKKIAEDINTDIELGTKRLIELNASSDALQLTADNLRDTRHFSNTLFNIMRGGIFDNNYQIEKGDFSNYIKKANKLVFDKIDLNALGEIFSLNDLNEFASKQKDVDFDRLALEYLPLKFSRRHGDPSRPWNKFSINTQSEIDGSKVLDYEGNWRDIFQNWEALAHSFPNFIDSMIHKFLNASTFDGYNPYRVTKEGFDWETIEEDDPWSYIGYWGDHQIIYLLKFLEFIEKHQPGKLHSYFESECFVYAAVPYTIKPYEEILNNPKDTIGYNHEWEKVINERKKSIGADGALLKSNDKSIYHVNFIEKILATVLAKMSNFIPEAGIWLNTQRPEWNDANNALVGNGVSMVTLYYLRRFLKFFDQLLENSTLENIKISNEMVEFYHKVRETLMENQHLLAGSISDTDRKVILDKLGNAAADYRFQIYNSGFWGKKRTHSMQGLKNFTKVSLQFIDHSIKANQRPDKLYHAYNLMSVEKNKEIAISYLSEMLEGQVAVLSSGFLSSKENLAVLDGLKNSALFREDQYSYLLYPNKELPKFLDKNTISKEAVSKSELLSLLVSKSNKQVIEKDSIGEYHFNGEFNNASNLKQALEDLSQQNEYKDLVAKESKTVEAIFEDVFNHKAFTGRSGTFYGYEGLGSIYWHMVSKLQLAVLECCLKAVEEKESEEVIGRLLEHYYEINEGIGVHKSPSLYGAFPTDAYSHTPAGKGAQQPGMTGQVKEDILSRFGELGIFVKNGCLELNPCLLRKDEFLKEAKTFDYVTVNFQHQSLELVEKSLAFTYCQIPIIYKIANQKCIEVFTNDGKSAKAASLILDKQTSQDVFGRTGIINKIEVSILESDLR
# Test: X-ray crystal structure (co-crystallization), […] Å
# Conditions: 8 mM G6, pH 9.0; surface binding site on catalytic domain, ~30 Å from active site; active site holds bicine and sulfate
smiles,measurement,value
"OC[C@H]1O[C@@H](O[C@@H]2[C@@H](O)[C@H](O[C@@H]3[C@@H](O)[C@H](O[C@@H]4[C@@H](O)[C@H](O[C@@H]5[C@@H](O)[C@H](O[C@H]6[C@H](O)[C@@H](CO)OC(O)[C@@H]6O)O[C@H](CO)[C@H]5O)O[C@H](CO)[C@H]4O)O[C@H](CO)[C@H]3O)O[C@H](CO)[C@H]2O)[C@H](O)[C@@H](O)[C@@H]1O (stereo partly shown) [G6, laminarihexaose]","X-ray crystal structure (co-crystallization), 2.25 Å",G6 bound to a SBS located on the solvent‐exposed surface of the catalytic domain
